Test results from PMC11820618 (Molecules, 2025).
Read-outs that look alike come from different tables or passages of the source.

Legend:
human TRPV1 = biological target: T1, human TRPV1 (Homo sapiens, UniProt Q8NER1); test: cell-based; details: for Emax: HEK293, read-out: TRPV1 Eff. %;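 on Emax: percent of maximal Ca2+ influx with 4 µM ionomycin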;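 on TRPV1 Eff. %: percent of maximal Ca2+ influx with 4 µM ionomycin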
T1 construct: expressed in transfected cells

rat TRPA1 = biological target: T2, rat TRPA1 (Rattus norvegicus, UniProt Q6RI86); test: cell-based; details: for Emax: HEK293, read-out: TRPA1 Eff. %;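 on Emax: percent of maximal Ca2+ influx with 100 µM AITC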;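 on TRPA1 Eff. %: percent of maximal Ca2+ influx with 100 µM AITC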
T2 construct: expressed in transfected cells

TRPV1 = details: cited from earlier work; for EC50: read-out: TRPV1 EC50 (potency); for IC50: read-out: TRPV1 IC50 (desensitization)

T2 sequence (Q6RI86 whole entry): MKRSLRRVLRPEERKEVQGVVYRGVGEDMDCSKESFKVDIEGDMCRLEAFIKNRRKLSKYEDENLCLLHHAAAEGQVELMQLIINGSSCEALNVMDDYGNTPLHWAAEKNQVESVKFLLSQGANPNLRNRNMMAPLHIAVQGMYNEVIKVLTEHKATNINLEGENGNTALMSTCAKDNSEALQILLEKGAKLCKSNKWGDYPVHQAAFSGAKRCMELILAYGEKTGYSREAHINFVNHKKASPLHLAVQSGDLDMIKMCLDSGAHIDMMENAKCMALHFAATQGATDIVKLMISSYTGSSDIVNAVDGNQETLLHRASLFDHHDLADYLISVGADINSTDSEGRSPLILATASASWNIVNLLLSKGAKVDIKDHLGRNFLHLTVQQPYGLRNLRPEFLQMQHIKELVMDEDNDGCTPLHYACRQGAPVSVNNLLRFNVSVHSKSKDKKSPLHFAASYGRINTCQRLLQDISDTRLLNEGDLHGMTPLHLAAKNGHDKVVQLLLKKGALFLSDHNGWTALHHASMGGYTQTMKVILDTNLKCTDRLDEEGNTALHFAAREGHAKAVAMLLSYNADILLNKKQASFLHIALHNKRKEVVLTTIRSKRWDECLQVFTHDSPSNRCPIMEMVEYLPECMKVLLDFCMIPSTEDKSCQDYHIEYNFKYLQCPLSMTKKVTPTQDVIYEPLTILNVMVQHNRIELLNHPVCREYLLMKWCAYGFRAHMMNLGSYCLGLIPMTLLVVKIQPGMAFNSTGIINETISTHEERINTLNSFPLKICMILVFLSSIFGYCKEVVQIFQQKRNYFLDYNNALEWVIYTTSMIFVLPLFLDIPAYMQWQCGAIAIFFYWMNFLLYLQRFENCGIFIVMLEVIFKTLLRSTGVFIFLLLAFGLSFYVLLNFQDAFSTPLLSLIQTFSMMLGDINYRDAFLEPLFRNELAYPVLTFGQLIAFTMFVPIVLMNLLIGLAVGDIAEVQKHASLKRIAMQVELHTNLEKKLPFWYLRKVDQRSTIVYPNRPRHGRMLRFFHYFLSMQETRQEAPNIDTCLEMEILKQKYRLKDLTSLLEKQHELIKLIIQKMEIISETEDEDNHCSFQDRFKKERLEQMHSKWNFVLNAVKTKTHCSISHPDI
T1 sequence (Q8NER1 whole entry): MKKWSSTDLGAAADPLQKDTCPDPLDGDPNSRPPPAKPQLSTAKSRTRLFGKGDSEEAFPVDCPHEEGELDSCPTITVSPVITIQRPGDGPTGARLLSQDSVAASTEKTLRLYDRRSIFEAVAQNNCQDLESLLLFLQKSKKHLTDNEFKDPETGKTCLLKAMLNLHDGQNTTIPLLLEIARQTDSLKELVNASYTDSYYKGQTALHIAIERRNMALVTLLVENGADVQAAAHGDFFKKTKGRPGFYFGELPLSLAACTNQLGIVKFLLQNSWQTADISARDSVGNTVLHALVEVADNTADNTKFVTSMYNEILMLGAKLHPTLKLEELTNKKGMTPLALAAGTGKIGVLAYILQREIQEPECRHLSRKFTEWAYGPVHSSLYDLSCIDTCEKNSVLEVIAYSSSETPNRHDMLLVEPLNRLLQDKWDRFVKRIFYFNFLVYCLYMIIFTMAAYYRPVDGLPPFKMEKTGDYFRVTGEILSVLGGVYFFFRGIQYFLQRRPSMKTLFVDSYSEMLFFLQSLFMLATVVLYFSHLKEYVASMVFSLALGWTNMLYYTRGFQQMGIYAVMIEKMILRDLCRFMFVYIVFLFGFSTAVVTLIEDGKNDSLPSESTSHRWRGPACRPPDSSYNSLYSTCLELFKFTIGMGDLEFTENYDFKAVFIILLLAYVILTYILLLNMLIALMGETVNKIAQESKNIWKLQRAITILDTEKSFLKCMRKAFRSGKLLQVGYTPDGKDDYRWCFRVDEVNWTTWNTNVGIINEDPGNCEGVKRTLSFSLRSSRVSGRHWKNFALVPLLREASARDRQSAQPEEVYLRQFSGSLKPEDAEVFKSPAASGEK

SMILES	EC50 (human TRPV1) [µM]	Emax (human TRPV1) [%]	EC50 (rat TRPA1) [µM]	IC50 (rat TRPA1) [µM]	Emax (rat TRPA1) [%]	IC50 (human TRPV1) [µM]	further results
COc1cc(CNC(=O)c2cc3ccccc3n2C)ccc1O [6g, N-(4-hydroxy-3-methoxybenzyl)-1-methyl-1H-indole-2-carboxamide]	0.0365	> 60	> 50	> 100	59.8 ± 1.6		IC50 (human TRPV1; read-out: TRPV1 IC50 (antagonism/desensitization)): 0.0535 ± 0.048 µM
Cn1c(C(=O)NCc2ccc(F)c(F)c2)cc2ccccc21 [6i, N-(3,4-Difluorobenzyl)-1-methyl-1H-indole-2-carboxamide]		< 10	10.9 ± 0.9	32.2 ± 3.2	68.4 to 101	> 100	
Cn1c(C(=O)NCc2ccc(Cl)c(Cl)c2)cc2ccccc21 [6h, N-(3,4-Dichlorobenzyl)-1-methyl-1H-indole-2-carboxamide]		< 10				16.4 ± 0.5	
COc1cc(CNC(=O)CCCc2ccc(-c3ccccc3)s2)ccc1O [4c]							EC50 (TRPV1): 0.0016 µM; IC50 (TRPV1): 0.0017 µM
O=C(NCc1ccc(F)cc1)c1cc2ccccc2[nH]1 [5e, N-(4-Fluorobenzyl)-1H-indole-2-carboxamide]		< 10	23.7 ± 2.1	> 50	42.8 ± 1.8	> 100	
COc1cc(CNC(=O)CCCc2ccccc2)ccc1O [4d]							EC50 (TRPV1): 0.109 µM; IC50 (TRPV1): 0.273 µM
COc1cc(CNC(=O)c2cc3ccccc3[nH]2)ccc1O [5f, N-(4-Hydroxy-3-methoxybenzyl)-1H-indole-2-carboxamide]	0.56 ± 0.08	66.8				1.03 ± 0.09	TRPV1 Eff. % (human TRPV1): 66.8 ± 1.3%
O=C(NCc1ccccc1)c1cc2ccccc2[nH]1 [5b, N-Benzyl-1H-indole-2-carboxamide]		< 10		> 100	< 10	> 100	
COc1cc(CNC(=O)CCCc2ccc(I)s2)ccc1O [4a]							EC50 (TRPV1): 0.0074 µM; IC50 (TRPV1): 0.0051 µM
COc1ccc(CNC(=O)c2cc3ccccc3[nH]2)cc1 [5d, N-(4-Methoxybenzyl)-1H-indole-2-carboxamide]		< 10	> 50	> 100	39.1 ± 3.5	> 50	
O=C(NCCc1ccc(O)c(O)c1)c1cc2ccccc2[nH]1 [5i, N-(3,4-Dihydroxyphenethyl)-1H-indole-2-carboxamide]	8.1 ± 0.1	37.3 ± 0.1				2.1 ± 0.1	TRPV1 agonist behaviour (in words) (human TRPV1): very weak agonist
Cn1c(C(=O)NCc2ccccc2)cc2ccccc21 [6c, N-Benzyl-1-methyl-1H-indole-2-carboxamide]		< 10		> 50	< 10	> 50	
O=C(NCc1ccc(Cl)c(Cl)c1)c1cc2ccccc2[nH]1 [5g, N-(3,4-Dichlorobenzyl)-1H-indole-2-carboxamide]		< 10				> 100	
COc1cc(CNC(=O)CCCc2ccc(-c3cccnc3)s2)ccc1O [4b]							EC50 (TRPV1): 0.0764 µM; IC50 (TRPV1): 0.145 µM
O=C(Nc1ccc(O)cc1)c1cc2ccccc2[nH]1 [5a, N-(4-Hydroxyphenyl)-1H-indole-2-carboxamide]	2.3 ± 0.1	54		> 100	< 10	10 ± 3.9	
O=C(NCc1ccc(F)c(F)c1)c1cc2ccccc2[nH]1 [5h, N-(3,4-Difluorobenzyl)-1H-indole-2-carboxamide]		< 10	19.1 ± 3.1	> 50	68.4 to 101	> 100	
Cn1c(C(=O)NCc2ccc(F)cc2)cc2ccccc21 [6f, N-(4-fluorobenzyl)-1-methyl-1H-indole-2-carboxamide]		< 10	20.4 ± 6.9	33.5 ± 3.2		> 100	
O=C(NCc1ccc(O)cc1)c1cc2ccccc2[nH]1 [5c, N-(4-Hydroxybenzyl)-1H-indole-2-carboxamide]	> 10	47.2 ± 0.3		> 100	< 10	> 50	
Cn1c(C(=O)NCCc2ccc(O)c(O)c2)cc2ccccc21 [6j, N-(3,4-Dihydroxyphenethyl)-1-methyl-1H-indole-2-carboxamide]	0.18 ± 0.05	> 60				0.26 ± 0.02	
Cn1c(C(=O)NCc2ccc(O)cc2)cc2ccccc21 [6d, N-(4-hydroxybenzyl)-1-methyl-1H-indole-2-carboxamide]	1.1 ± 0.1	27.6		> 100	< 10	19.2 ± 6.7	TRPV1 Eff. % (human TRPV1): 27.6 ± 0.3%
COc1cc(CNC(=O)CCCCC2CCSS2)ccc1O (stereo not drawn) [compound 3]							EC50 (TRPV1): 0.13 µM; IC50 (TRPV1): 0.13 µM
COc1cc(CNC(=O)CCCc2cccs2)ccc1O [compound 2, N-(4-Hydroxy-3-Methoxybenzyl)-4-(Thiophen-2-yl)Butanamide]							EC50 (TRPV1): 0.87 µM; IC50 (TRPV1): 1.3 µM
Cn1c(C(=O)Nc2ccc(F)cc2)cc2ccccc21 [6b, N-(4-Fluorophenyl)-1-methyl-1H-indole-2-carboxamide]	3.5 ± 2.1	34.4	2 ± 1.1	5.2 ± 0.4	78.6	6.9 ± 2.6	TRPV1 Eff. % (human TRPV1): 34.4 ± 4.5%; TRPA1 Eff. % (rat TRPA1): 78.6 ± 9.7%; TRPA1 agonist behaviour (in words) (rat TRPA1): very good TRPA1 agonist
COc1ccc(CNC(=O)c2cc3ccccc3n2C)cc1 [6e, N-(4-methoxybenzyl)-1-methyl-1H-indole-2-carboxamide]		< 10	20.3 ± 1.1	> 50	81.3 ± 1.8	> 10	
Cn1c(C(=O)Nc2ccc(O)cc2)cc2ccccc21 [6a, N-(4-Hydroxyphenyl)-1-methyl-1H-indole-2-carboxamide]	0.34 ± 0.01	> 60	22.7 ± 1.7	> 50	42.9 ± 0.5	0.72 ± 0.08	
